In patent US20070299072A1, “KV1.5 POTASSIUM CHANNEL INHIBITORS” (Wyeth, priority 2006, published 2007):

Legend:
Type in all cases: cell-based
HERG = molecular target: T1, HERG (Homo sapiens, UniProt Q12809); experiment: HERG Patch Clamp EP (whole cell patch clamp, tail currents; single point at 10 μM and IC50); conditions: for IC50: concentration response; for inhibition at 10 µM: human, HEK cells stably overexpressing HERG, single point at 10 μM, HERG in HEK cells, read-out: HERG % Inhib. @ 10 μM
T1 construct: expressed in transfected cells; host or cells: HEK cells
From the text: The external solution is standard Tyrodes solution.

L-type calcium channels = experiment: FLIPR L-type Calcium Channel Assay (calcium influx in HL-1 cells after KCl); conditions: read-out: L-type Ca2+ IC50
Procedure: HL-1 cells expressing endogenous L-type calcium channels are removed from culture flasks using trypsin, plated on fibronectin/gelatin-coated, clear-bottomed, black-walled 96-well microplates in Claycomb media (JRH Biosciences #51800) containing 10% fetal bovine serum, 4 mM L-glutamine, and 10 μM norepinephrine, and grown to confluency overnight. The next day, growth medium is aspirated from confluent cell monolayers and replaced with 100 μL per well Tyrode's solution (in mM: 130 NaCl, 4 KCl, 1.8 CaCl2, 1.0 MgCl2, 20 HEPES, 10 glucose, pH 7.35) and 50 μL per well FLIPR Calcium Assay kit, component A (#R-8033, Molecular Devices Corporation) and incubated for 60 min. in a 5% CO2 37° C. incubator. 50 μL per well test compounds are added to the plates and further incubated for 15 min. in a 5% CO2 37° C. incubator. All final solutions contain the anion exchange inhibitor, probenecid (2.5 mM). The 96-well plates are then placed in the center position of the FLIPR 1 (Fluorometric Imaging Plate Reader, Molecular Devices Corporation). Cell monolayers in each well are simultaneously illuminated at 488 nm with an Argon ion laser, and fluorescence emission is monitored using a 510-570 nm bandpass filter and a cooled CCD camera. To depolarize the plasma membrane and activate L-type calcium channels, 50 μL per well of 20 mM KCl (final concentration) are dispensed simultaneously to all 96 wells using the FLIPR's automatic 96-well pipettor. Fluorescence measurements are captured for 5 min. following KCl addition. Calcium influx, expressed as % control, is calculated for each concentration of test compound and concentration-response curves and IC50 values are generated using GraphPad Prism 4.0.

Kv1.5 = molecular target: T2, Kv1.5 (Homo sapiens, UniProt P22460); experiment: Kv1.5 Patch Clamp EP (whole cell patch clamp; single point at 1 μM and IC50); conditions: for IC50: concentration response; for inhibition at 1 µM: single point at 1.0 μM, Kv1.5 stably over expressed in HEK or LTK- cells
T2 construct: expressed in transfected cells; host or cells: HEK or LTK- cells
Procedure: The external solution is standard Tyrodes solution. […] Inhibition was measured at the end of the 1 second pulses and expressed relative to controls. Initial Kv1.5 inhibition is estimated by single point determinations done at 1 μM.

T1 sequence (Q12809 whole entry): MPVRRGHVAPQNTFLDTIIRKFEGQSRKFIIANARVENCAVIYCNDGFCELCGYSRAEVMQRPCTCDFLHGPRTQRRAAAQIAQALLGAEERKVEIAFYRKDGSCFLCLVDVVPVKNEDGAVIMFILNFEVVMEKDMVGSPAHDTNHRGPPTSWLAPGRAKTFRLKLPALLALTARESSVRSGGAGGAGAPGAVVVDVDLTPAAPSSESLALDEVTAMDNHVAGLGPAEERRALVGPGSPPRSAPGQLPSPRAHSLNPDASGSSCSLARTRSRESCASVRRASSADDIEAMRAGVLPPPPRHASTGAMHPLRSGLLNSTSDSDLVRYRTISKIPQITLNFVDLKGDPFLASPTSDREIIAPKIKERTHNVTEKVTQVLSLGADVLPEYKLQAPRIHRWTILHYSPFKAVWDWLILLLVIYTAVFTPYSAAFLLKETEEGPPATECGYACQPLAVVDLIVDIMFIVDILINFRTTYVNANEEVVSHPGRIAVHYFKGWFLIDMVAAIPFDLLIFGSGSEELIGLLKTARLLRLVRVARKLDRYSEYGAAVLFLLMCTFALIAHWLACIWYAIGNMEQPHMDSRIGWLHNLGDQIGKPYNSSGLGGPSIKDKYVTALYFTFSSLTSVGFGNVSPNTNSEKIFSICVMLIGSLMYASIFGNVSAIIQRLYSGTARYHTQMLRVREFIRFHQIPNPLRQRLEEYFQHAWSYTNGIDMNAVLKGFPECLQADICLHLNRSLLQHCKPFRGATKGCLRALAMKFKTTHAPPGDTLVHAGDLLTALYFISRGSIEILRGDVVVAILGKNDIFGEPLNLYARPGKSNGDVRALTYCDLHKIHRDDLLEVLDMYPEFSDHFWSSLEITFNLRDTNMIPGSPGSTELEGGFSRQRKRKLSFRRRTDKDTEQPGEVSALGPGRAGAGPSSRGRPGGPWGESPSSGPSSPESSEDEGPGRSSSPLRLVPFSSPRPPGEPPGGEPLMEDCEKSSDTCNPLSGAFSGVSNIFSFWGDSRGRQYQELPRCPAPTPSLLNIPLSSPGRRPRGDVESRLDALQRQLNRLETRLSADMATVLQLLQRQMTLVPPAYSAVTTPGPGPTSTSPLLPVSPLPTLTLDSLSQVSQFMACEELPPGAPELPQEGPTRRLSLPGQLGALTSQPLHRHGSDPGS
T2 sequence (P22460 whole entry): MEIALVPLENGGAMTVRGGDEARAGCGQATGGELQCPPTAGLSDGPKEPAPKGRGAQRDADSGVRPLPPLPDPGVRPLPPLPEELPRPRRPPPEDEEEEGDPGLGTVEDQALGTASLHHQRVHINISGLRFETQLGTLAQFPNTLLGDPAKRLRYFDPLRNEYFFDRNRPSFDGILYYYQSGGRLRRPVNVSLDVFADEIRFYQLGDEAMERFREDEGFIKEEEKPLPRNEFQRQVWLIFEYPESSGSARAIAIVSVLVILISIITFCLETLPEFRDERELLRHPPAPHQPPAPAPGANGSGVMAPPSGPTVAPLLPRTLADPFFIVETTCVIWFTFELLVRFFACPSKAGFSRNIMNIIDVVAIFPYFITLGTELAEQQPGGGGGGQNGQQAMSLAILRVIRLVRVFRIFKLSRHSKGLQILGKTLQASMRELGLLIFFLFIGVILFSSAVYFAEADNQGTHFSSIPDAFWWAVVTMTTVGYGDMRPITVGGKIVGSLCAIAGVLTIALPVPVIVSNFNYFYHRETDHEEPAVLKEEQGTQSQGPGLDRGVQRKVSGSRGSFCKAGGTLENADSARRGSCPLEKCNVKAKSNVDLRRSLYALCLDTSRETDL

SMILES | IC50 (HERG) [µM] | inhibition at 10 µM (HERG) [%] | IC50 (L-type calcium channels) [µM] | IC50 (Kv1.5) [µM] | inhibition at 1 µM (Kv1.5) [%]
CN1C(c2ccc(C3CC3)cc2)N(CCCc2ccccc2)C(=O)C12CCN(C(N)=O)CC2 (stereo not shown) [Compound 49, 2-(4-Cyclopropylphenyl)-1-methyl-4-oxo-3-(3-phenylpropyl)-1,3,8-triazaspiro-[4.5]decane-8-carboxylic acid amide] | 7.7 | 67 | 14 | 0.321 | 86
CN1C(c2ccc(C(C)(C)C)cc2)N(CCCc2ccccc2)C(=O)C12CCN(C(N)=O)CC2 (stereo not shown) [Compound 50, 2-(4-tert-Butylphenyl)-1-methyl-4-oxo-3-(3-phenylpropyl)-1,3,8-triazaspiro-[4.5]decane-8-carboxylic acid amide] | – | 37 | 16 | – | 72
CC(C)NC(=O)N1CCC2(CC1)C(=O)N(CCCc1ccccc1)C(c1ccc(C3CC3)cc1)N2C (stereo not shown) [Compound 52, 2-(4-Cyclopropylphenyl)-1-methyl-4-oxo-3-(3-phenylpropyl)-1,3,8-triazaspiro-[4.5]decane-8-carboxylic acid isopropyl amide] | – | 79 | 12 | – | 89
CN(C)C(=O)N1CCC2(CC1)C(=O)N(CCCc1ccccc1)C(c1ccc(C3CC3)cc1)N2C (stereo not shown) [Compound 53, 2-(4-Cyclopropylphenyl)-1-methyl-4-oxo-3-(3-phenylpropyl)-1,3,8-triazaspiro-[4.5]decane-8-carboxylic acid dimethylamide] | – | 77 | 4.5 | – | 93
CN1C(c2ccc(C3CC3)cc2)N(CCCc2ccccc2)C(=O)C12CCN(S(C)(=O)=O)CC2 (stereo not shown) [Compound 54, 2-(4-Cyclopropylphenyl)-8-methanesulfonyl-1-methyl-3-(3-phenylpropyl)-1,3,8-triazaspiro-[4.5]decan-4-one] | 4.9 | 53 | 18 | 0.266 | 88
COc1ccc(CCN2C(=O)C3(CCN(CC(N)=O)CC3)N(C)C2c2ccc(C3CC3)cc2)cc1 (stereo not shown) [Compound 55, 2-{2-(4-Cyclopropylphenyl)-3-[2-(4-methoxyphenyl)ethyl]-1-methyl-4-oxo-1,3,8-triaza-spiro[4.5]dec-8-yl}acetamide] | – | 71 | 8 | – | 64
COc1ccc(CCN2C(=O)C3(CCN(C(N)=O)CC3)N(C)C2Cc2ccc(C(C)(C)C)cc2)cc1 (stereo not shown) [Compound 58, 2-(4-tert-Butylbenzyl)-3-[2-(4-methoxyphenyl)ethyl]-1-methyl-4-oxo-1,3,8-triazaspiro[4.5]decane-8-carboxylic acid amide] | 4.4 | 68 | 12 | 0.25 | 92
COc1ccc(CCN2C(=O)C3(CCN(C(=O)OC(C)(C)C)CC3)NC2c2ccc(OC(F)F)cc2)cc1 (stereo not shown) [Compound 62, 2-(4-Difluoromethoxyphenyl)-3-[2-(4-methoxyphenyl)ethyl]-4-oxo-1,3,8-triaza-spiro[4.5]decane-8-carboxylic acid tert-butyl ester] | 4.6 | 62 | 7.8 | 0.257 | 93
COc1ccc(CCN2C(=O)C3(CCN(S(C)(=O)=O)CC3)NC2c2ccc(C(C)(C)C)cc2)cc1 (stereo not shown) [Compound 63, 2-(4-tert-Butylphenyl)-8-methanesulfonyl-3-[2-(4-methoxyphenyl)ethyl]-1,3,8-triaza-spiro[4.5]decan-4-one] | – | 40 | 3 | – | 73
COc1ccc(CCN2C(=O)C3(CCN(C(=NC#N)Oc4ccccc4)CC3)N(C)C2c2ccc(OC)cc2)cc1 (stereo not shown) [Compound 67, 8-(phenyl-N-cyano-1-carbimidate)-2-(4-methoxyphenyl)-3-[2-(4-methoxyphenyl)ethyl]-1-methyl-1,3,8-triaza-spiro[4.5]decan-4-one] | – | 80 | 10 | – | 91
COC(=O)N1CCC2(CC1)NC(c1ccc(C3CC3)cc1)N(CCc1ccc(OC)cc1)C2=O (stereo not shown) [Compound 75, Methyl 2-(4-cyclopropylphenyl)-3-[2-(4-methoxyphenyl)ethyl]-4-oxo-1,3,8-triazaspiro[4.5]decane-8-carboxylate] | – | 2 | 19 | – | 94
COc1ccc(CCN2C(=O)C3(CCN(C(=O)NN)CC3)N(C)C2c2ccc(C3CC3)cc2)cc1 (stereo not shown) [Compound 80, 2-(4-cyclopropylphenyl)-3-[2-(4-methoxyphenyl)ethyl]-1-methyl-4-oxo-1,3,8-triazaspiro[4.5]decane-8-carbohydrazide] | – | 24 | 19 | – | 74
CCCCC(=O)N1CCC2(CC1)C(=O)N(CCc1ccc(OC)cc1)C(c1ccc(OC(F)F)cc1)N2C (stereo not shown) [Compound 81, 2-[4-(difluoromethoxy)phenyl]-3-[2-(4-methoxyphenyl)ethyl]-1-methyl-8-pentanoyl-1,3,8-triazaspiro[4.5]decan-4-one] | – | 95 | 9 | – | 80
COc1ccc(CCN2C(=O)C3(CCN(C(=O)C4CCCC4)CC3)N(C)C2c2ccc(OC(F)F)cc2)cc1 (stereo not shown) [Compound 82, 8-(cyclopentylcarbonyl)-2-[4-(difluoromethoxy)phenyl]-3-[2-(4-methoxyphenyl)ethyl]-1-methyl-1,3,8-triazaspiro[4.5]decan-4-one] | – | 90 | 7 | – | 88
COc1ccc(CCN2C(=O)C3(CCN(C(=O)C4CC4)CC3)N(C)C2c2ccc(CC(C)C)cc2)cc1 (stereo not shown) [Compound 83, 8-(cyclopropylcarbonyl)-2-(4-isobutylphenyl)-3-[2-(4-methoxyphenyl)ethyl]-1-methyl-1,3,8-triazaspiro[4.5]decan-4-one] | – | 84 | 6.8 | – | 93
COc1ccc(CCN2C(=O)C3(CCN(C(=O)OC(C)(C)C)CC3)N(C)C2c2ccc(CC(C)C)cc2)cc1 (stereo not shown) [Compound 85, tert-butyl 2-(4-isobutylphenyl)-3-[2-(4-methoxyphenyl)ethyl]-1-methyl-4-oxo-1,3,8-triazaspiro[4.5]decane-8-carboxylate] | – | 3 | 6.7 | – | 85
COc1ccc(CCN2C(=O)C3(CCN(CC(=O)N(C)C)CC3)N(C)C2c2ccc(C3CC3)cc2)cc1 (stereo not shown) [Compound 89, 2-{2-(4-cyclopropylphenyl)-3-[2-(4-methoxyphenyl)ethyl]-1-methyl-4-oxo-1,3,8-triazaspiro[4.5]dec-8-yl}-N,N-dimethylacetamide] | 12 | 43 | 12 | 0.273 | 94
COc1ccc(CCN2C(=O)C3(CCN(C(=O)n4ccnc4)CC3)N(C)C2c2ccc(C3CC3)cc2)cc1 (stereo not shown) [Compound 91, 2-(4-cyclopropylphenyl)-8-(1H-imidazol-1-ylcarbonyl) —3-[2-(4-methoxyphenyl)ethyl]-1-methyl-1,3,8-triazaspiro[4.5]decan-4-one] | – | 72 | 13 | – | 87
COc1ccc(CCN2C(=O)C3(CCN(S(C)(=O)=O)CC3)N(C(=O)C(F)(F)F)C2c2ccc(C3CC3)cc2)cc1 (stereo not shown) [Compound 92, 2-(4-cyclopropylphenyl)-3-[2-(4-methoxyphenyl)ethyl]-8-(methylsulfonyl)-1-(trifluoroacetyl)-1,3,8-triazaspiro[4.5]decan-4-one] | – | 73 | 14 | – | 81
COc1ccc(CCN2C(=O)C3(CCN(C(=O)OC(C)(C)C)CC3)NC2Cc2ccc(C(C)(C)C)cc2)cc1 (stereo not shown) [Compound 96, 2-(4-tert-butylbenzyl)-3-[2-(4-methyoxyphenyl)ethyl]-4-oxo-1,3,8-triaza-spiro[4.5]decane-8-carboxylic acid tert-butyl ester] | – | 12 | 12 | 0.393 | 96
COc1ccc(CCN2C(=O)C3(CCN(C(N)=O)CC3)N(C)[C@@H]2c2ccc(C3CC3)cc2)cc1 [Compound 98, (S)-2-(4-cyclopropylphenyl)-3-[2-(4-methoxyphenyl)ethyl]-1-methyl-4-oxo-1,3,8-triaza-spiro[4.5]decane-8-carboxylic acid amide] | 13 | 13 | 13 | 0.32 | 90
